In patent US20200216439A1, “HETERO-1,5,6,7-TETRAHYDRO-4H-INDOL-4-ONES” (BAYER PHARMA AKTIENGESELLSCHAFT, priority 2015, published 2020):

Target: T1, catalytic domain of human Bub1 (amino acids 704-1085) (Homo sapiens, UniProt O43683)
T1 construct: catalytic domain of human Bub1 (amino acids 704-1085); His6 (N); made in house; host or cells: Hi5 insect cells
Experiment: Bub1 kinase assay (TR-FRET)
Format: biochemical
Conditions: TR-FRET; ATP 10 μM, peptide substrate 1 μM; 60 min at 22° C.; average or median if tested more than once; read-out: Inhibition of Bub1 kinase IC50
In short: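 Human Bub1 catalytic domain (704-1085, His6-tagged, Hi5-expressed, ~200 ng/mL) preincubated with compound 15 min at 22 °C, then reacted 60 min at 22 °C with 10 μM ATP and 1 μM biotinylated peptide substrate, pH 7.5. EDTA stop; TR-FRET 665/620 ratio; IC50 from 4-parameter fit, 11 concentrations in duplicate.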

T1 sequence (O43683 704-1085): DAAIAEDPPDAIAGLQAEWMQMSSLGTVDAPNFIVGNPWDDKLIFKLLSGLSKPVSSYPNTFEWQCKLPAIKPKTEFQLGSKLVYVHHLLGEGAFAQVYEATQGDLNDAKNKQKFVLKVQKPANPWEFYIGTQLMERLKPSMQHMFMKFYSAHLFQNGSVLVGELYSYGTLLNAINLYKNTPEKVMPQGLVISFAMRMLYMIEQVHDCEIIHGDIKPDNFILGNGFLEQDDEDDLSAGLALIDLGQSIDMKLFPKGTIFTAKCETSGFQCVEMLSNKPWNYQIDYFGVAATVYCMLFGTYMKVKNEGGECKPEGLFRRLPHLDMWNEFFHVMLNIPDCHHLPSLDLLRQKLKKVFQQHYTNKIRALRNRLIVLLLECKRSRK

SMILES | IC50 [nM]
O=C1CN(C(=O)C2CC2)Cc2[nH]c(-c3ccnc(NC(=O)[C@@H]4C[C@@H]4F)c3)c(Nc3ccccc3)c21 [Example 212, (1S,2S)—N-4-[6-(Cyclopropylcarbonyl)-4-oxo-3-(phenylamino)-4,5,6,7-tetrahydro-1H-pyrrolo[2,3-c]pyridin-2-yl]pyridin-2-yl-2-fluorocyclopropanecarboxamide] | 3
COc1cnccc1-c1[nH]c2c(c1Nc1ccccc1)C(=O)CSC2 [Example 39, 2-(3-Methoxypyridin-4-yl)-3-(phenylamino)-1,7-dihydrothiopyrano[3,4-b]pyrrol-4(5H)-one] | 81
CCOC(=O)N1CC(=O)c2c([nH]c(-c3ccnc(NC(C)=O)c3)c2Nc2ccccc2)C1 [Example 183, Ethyl 2-(2-acetamidopyridin-4-yl)-3-anilino-4-oxo-1,4,5,7-tetrahydro-6H-pyrrolo[2,3-c]pyridine-6-carboxylate] | 9
CC(C)OC(=O)N1CC(=O)c2c([nH]c(-c3ccnc(NC(=O)[C@H]4C[C@H]4F)c3)c2Nc2ccccc2)C1 (relative stereo) [Example 157, Isopropyl 3-anilino-2-[2-({[rel-(1R,2R)-2-fluorocyclopropyl]carbonyl}amino)pyridin-4-yl]-4-oxo-1,4,5,7-tetrahydro-6H-pyrrolo[2,3-c]pyridine-6-carboxylate] | 7
NC(CN1CC(=NO)c2c([nH]c(-c3ccncc3)c2Nc2ccccc2)C1)=NO (mixture of isomers) [Example 218, (1E/Z)—N′-Hydroxy-2-[(4E/Z)-4-(hydroxyimino)-3-(phenylamino)-2-(pyridin-4-yl)-1,4,5,7-tetrahydro-6H-pyrrolo[2,3-c]pyridin-6-yl]ethanimidamide] | 79
CC(C)(C)OC(=O)N1CC(=O)c2c([nH]c(-c3ccnc(NC(=O)C4CC4(F)F)c3)c2Nc2ccccc2)C1 (racemic) [Example 121, tert-Butyl 2-[2-({[(1RS)-2,2-difluorocyclopropyl]carbonyl}amino)pyridin-4-yl]-4-oxo-3-(phenylamino)-1,4,5,7-tetrahydro-6H-pyrrolo[2,3-c]pyridine-6-carboxylate] | 10
CC(=O)Nc1cc(-c2[nH]c3c(c2Nc2ccccc2)C(=O)CN(C(=O)N2C[C@@H](C)O[C@@H](C)C2)C3)ccn1 [Example 255, N-4-[6-[(2R,6S)-2,6-Dimethylmorpholin-4-yl]carbonyl-4-oxo-3-(phenylamino)-4,5,6,7-tetrahydro-1H-pyrrolo[2,3-c]pyridin-2-yl]pyridin-2-ylacetamide] | 375
CC(=O)Nc1cc(-c2[nH]c3c(c2Nc2ccccc2)C(=O)CN(C(=O)c2cnc[nH]2)C3)ccn1 [Example 113, N-{4-[6-(1H-Imidazol-5-ylcarbonyl)-4-oxo-3-(phenylamino)-4,5,6,7-tetrahydro-1H-pyrrolo[2,3-c]pyridin-2-yl]pyridin-2-yl}acetamide] | 34
CSCCC(=O)N1CC(=O)c2c([nH]c(-c3ccnc(NC(C)=O)c3)c2Nc2ccccc2)C1 [Example 192] | 30
Cc1ccc(Nc2c(-c3ccnc(N)c3)[nH]c3c2C(=O)CN(C(=O)OC(C)(C)C)C3)cc1 [Example 294, tert-butyl 2-(2-Aminopyridin-4-yl)-3-[(4-methylphenyl)amino]-4-oxo-1,4,5,7-tetrahydro-6H-pyrrolo[2,3-c]pyridine-6-carboxylate] | 499
O=C1CN(C(=O)c2cnc[nH]2)Cc2[nH]c(-c3ccncc3)c(Nc3ccccc3)c21 [Example 59, 6-(1H-Imidazol-5-ylcarbonyl)-3-(phenylamino)-2-(pyridin-4-yl)-1,5,6,7-tetrahydro-4H-pyrrolo[2,3-c]pyridin-4-one] | 10
CC(=O)Nc1cc(-c2[nH]c3c(c2Nc2ccccc2)C(=O)CN(S(=O)(=O)c2cnc[nH]2)C3)ccn1 [Example 117, N-{4-[6-(1H-Imidazol-5-ylsulfonyl)-4-oxo-3-(phenylamino)-4,5,6,7-tetrahydro-1H-pyrrolo[2,3-c]pyridin-2-yl]pyridin-2-yl}acetamide] | 9
O=C1CN(C(=O)N2CCOCC2)Cc2[nH]c(-c3ccncc3OCC(F)(F)F)c(Nc3ccccc3)c21 [Example 245, 6-(Morpholin-4-ylcarbonyl)-3-(phenylamino)-2-[3-(2,2,2-trifluoroethoxy)pyridin-4-y]1,5,6,7-tetrahydro-4H-pyrrolo[2,3-c]pyridin-4-one] | 73
CC(=O)Nc1cc(-c2[nH]c3c(c2Nc2ccccc2)C(=O)CN(C(=O)c2cnco2)C3)ccn1 [Example 176, N-{4-[3-Anilino-6-(1,3-oxazol-5-ylcarbonyl)-4-oxo-4,5,6,7-tetrahydro-1H-pyrrolo[2,3-c]pyridin-2-yl]pyridin-2-yl}acetamide] | 16
CS(=O)(=O)N1CC(=O)c2c([nH]c(-c3ccncc3OCC(F)F)c2Nc2ccccc2)C1 [Example 232, 3-Anilino-2-[3-(2,2-difluoroethoxy)pyridin-4-yl]-6-(methylsulfonyl)-1,5,6,7-tetrahydro-4H-pyrrolo[2,3-c]pyridin-4-one] | 12
CC(=O)Nc1cc(-c2[nH]c3c(c2Nc2ccccc2)C(=O)CN(S(=O)(=O)CCC(F)(F)F)C3)ccn1 [Example 182, N-(4-{3-Anilino-4-oxo-6-[(3,3,3-trifluoropropyl)sulfonyl]-4,5,6,7-tetrahydro-1H-pyrrolo[2,3-c]pyridin-2-yl}pyridin-2-yl)acetamide] | 4
CC(C)(F)C(=O)Nc1cc(-c2[nH]c3c(c2Nc2ccccc2)C(=O)CN(S(=O)(=O)c2cnc[nH]2)C3)ccn1 [Example 162, N-{4-[3-Anilino-6(1H-imidazol-5-ylsulfonyl)-4-oxo-4,5,6,7-tetrahydro-1H-pyrrolo[2,3-c]pyridin-2-yl]pyridin-2-yl}-2-fluoro-2-methylpropanamide] | 38
CC(=O)Nc1cc(-c2[nH]c3c(c2Nc2ccccc2)C(=O)CN(C(=O)c2cscn2)C3)ccn1 [Example 194, N-{4-[3-Anilino-4-oxo-6-(1,3-thiazol-4-ylcarbonyl)-4,5,6,7-tetrahydro-1H-pyrrolo[2,3-c]pyridin-2-yl]pyridin-2-yl}acetamide] | 46
O=C(Nc1cc(-c2[nH]c3c(c2Nc2ccccc2)C(=O)COC3)ccn1)c1cncs1 [Example 51, N-{4-[4-Oxo-3-(phenylamino)-1,4,5,7-tetrahydropyrano[3,4-b]pyrrol-2-yl]pyridin-2-yl}-1,3-thiazole-5-carboxamide] | 44
Cc1ccc(F)cc1C(=O)Nc1cc(-c2[nH]c3c(c2Nc2ccccc2)C(=O)CNC3)ccn1 [Example 269, 5-Fluoro-2-methyl-N-4-[4-oxo-3-(phenylamino)-4,5,6,7-tetrahydro-1H-pyrrolo[2,3-c]pyridin-2-yl]pyridin-2-ylbenzamide] | 149
O=C1CNCc2[nH]c(-c3ccncc3OCC3CC3)c(Nc3ccccc3)c21 [Example 227, 3-anilino-2-[3-(cyclopropylmethoxy)pyridin-4-yl]-1,5,6,7-tetrahydro-4H-pyrrolo[2,3-c]pyridin-4-one] | 140
O=C1COCc2[nH]c(-c3ccncc3)c(Nc3ccccc3)c21 [Example 6, 3-(phenylamino)-2-(pyridin-4-yl)-1,7-dihydropyrano[3,4-b]pyrrol-4(5H)-one] | 42
CNC(=O)N1CC(=O)c2c([nH]c(-c3ccncc3OCC(F)(F)F)c2Nc2ccccc2)C1 [Example 243, N-Methyl-44-oxo-3-(phenylamino)-2-[3-(2,2,2-trifluoroethoxy)pyridin-4-yl]-1,4,5,7-tetrahydro-6H-pyrrolo[2,3-c]pyridine-6-carboxamide] | 55
COCCNC(=O)N1CC(=O)c2c([nH]c(-c3ccncc3)c2Nc2ccccc2)C1 [Example 86, N-(2-Methoxyethyl)-4-oxo-3-(phenylamino)-2-(pyridin-4-yl)-1,4,5,7-tetrahydro-6H-pyrrolo[2,3-c]pyridine-6-carboxamide] | 11
CC(=O)Nc1cc(-c2[nH]c3c(c2Nc2ccc(F)cc2)C(=O)CN(C(=O)OC(C)(C)C)C3)ccn1 [Example 297, tert-Butyl 2-(2-acetamidopyridin-4-yl)-3-[(4-fluorophenyl)amino]-4-oxo-1,4,5,7-tetrahydro-6H-pyrrolo[2,3-c]pyridine-6-carboxylate] | 55
O=C1CN(C(=O)Nc2cccnc2)Cc2[nH]c(-c3ccncc3)c(Nc3ccccc3)c21 [Example 97, 4-Oxo-3-(phenylamino)-N-(pyridin-3-yl)-2-(pyridin-4-yl)-1,4,5,7-tetrahydro-6H-pyrrolo[2,3-c]pyridine-6-carboxamide] | 59
CC(C)OC(=O)N1CC(=O)c2c([nH]c(-c3ccnc(NC(=O)C4CC4(F)F)c3)c2Nc2ccccc2)C1 (racemic) [Example 158, Isopropyl 3-anilino-2-[2-({[(1RS)-2,2-difluorocyclopropyl]carbonyl}amino)pyridin-4-yl]-4-oxo-1,4,5,7-tetrahydro-6H-pyrrolo[2,3-c]pyridine-6-carboxylate] | 8
CN(C)S(=O)(=O)N1CC(=O)c2c([nH]c(-c3ccnc(NC(=O)[C@@H]4C[C@@H]4F)c3)c2Nc2ccccc2)C1 [Example 272, (1S,2S)—N-4-[6-(Dimethylsulfamoyl)-4-oxo-3-(phenylamino)-4,5,6,7-tetrahydro-1H-pyrrolo[2,3-c]pyridin-2-yl]pyridin-2-yl-2-fluorocyclopropanecarboxamide] | 4
CC(=O)Nc1cc(-c2[nH]c3c(c2Nc2ccccc2)C(=O)CN(C(C)=O)C3)ccn1 [Example 112, N-{4-[6-Acetyl-4-oxo-3-(phenylamino)-4,5,6,7-tetrahydro-1H-pyrrolo[2,3-c]pyridin-2-yl]pyridin-2-yl}acetamide] | 9
CC(=O)Nc1cc(-c2[nH]c3c(c2Nc2ccc(C)cc2)C(=O)CNC3)ccn1 [Example 303, N-(4-{3-[(4-Methylphenyl)amino]4-oxo-4,5,6,7-tetrahydro-1H-pyrrolo[2,3-c]pyridin-2-yl}pyridin-2-yl)acetamide] | 1150
